Source: BindingDB's records for doi:10.1016/j.bmc.2009.08.051 (Kyoto Prefectural University, 2009)

These molecules were tested against DNA polymerase (Bos taurus, UniProt A0AAA9TD94) (assay: DNA Polymerase Assay). Conditions: pH 7.5; 37 °C.
Protocol: (§1) For the DNA polymerase reaction, the dehydroaltenusin derivative was dissolved in dimethyl sulfoxide (DMSO) at various concentrations and sonicated for 30 s. Four microlitres of each sonicated sample were mixed with 16 uL of enzyme (final 0.05 units) in reaction buffer, and kept at 0 deg C for 10 min. These inhibitor-enzyme mixtures were added to 16 uL of each enzyme standard reaction mixture containing DNA template-primer and nucleotide, and incubated at 37 deg C for 60 min. Activity without the inhibitor was considered 100%, and the remaining activity at each concentration of the inhibitor was determined relative to this value. One unit of pol activity was defined as the amount of enzyme that catalyzed the incorporation of 1 nmol of dNTP (i.e., dTTP) into synthetic DNA template-primer in 60 min at 37 deg C under the normal reaction conditions.

SMILES	IC50 [µM]
CCCCCCOc1cc(O)c2c(c1)C1=CC(=O)C(=O)CC1(C)OC2=O (stereo not given) [dehydroaltenusin derivative, 15]	0.09
COc1cc(O)c2c(c1)C1=CC(=O)C=CC1(C)OC2=O (stereo not given) [dehydroaltenusin derivative, 31]	> 200
CC12CC(=O)C(=O)C=C1c1cc(O)cc(O)c1C(=O)O2 (stereo not given) [desmethyldehydroaltenusin, 2]	0.89
CC12C=CC(=O)C=C1c1cccc(O)c1C(=O)O2 (stereo not given) [dehydroaltenusin derivative, 32]	> 200
COc1cc(O)c2c(=O)oc3cc(O)c(O)cc3c2c1 [dehydroaltenusin derivative, 26]	> 200
CC12CC(=O)C(=O)C=C1c1cccc(O)c1C(=O)O2 (stereo not given) [dehydroaltenusin derivative, 20]	0.24
CCCOc1cc(O)c2c(c1)C1=CC(=O)C(=O)CC1(C)OC2=O (stereo not given) [dehydroaltenusin derivative, 14]	0.18
COc1cc(O)c2c(c1)C1=CC(=O)C(=O)CC1(C)OC2=O (stereo not given) [dehydroaltenusin]	0.68
CCCCCCCCCCCCOc1cc(O)c2c(c1)C1=CC(=O)C(=O)CC1(C)OC2=O (stereo not given) [dehydroaltenusin derivative, 16]	0.06
COc1cc(O)c2c(=O)oc3cc(OCc4ccccc4)c(OCc4ccccc4)cc3c2c1 [dehydroaltenusin derivative, 25]	> 200

The molecules below were run against DNA polymerase beta (Rattus norvegicus, UniProt P06766) (assay: DNA Polymerase Assay). Conditions: pH 7.5; 37 °C.
Protocol: as §1

IC50 [µM]	SMILES
24	CCCCCCOc1cc(O)c2c(c1)C1=CC(=O)C(=O)CC1(C)OC2=O (stereo not given) [dehydroaltenusin derivative, 15]
> 200	COc1cc(O)c2c(c1)C1=CC(=O)C=CC1(C)OC2=O (stereo not given) [dehydroaltenusin derivative, 31]
126	CC12CC(=O)C(=O)C=C1c1cc(O)cc(O)c1C(=O)O2 (stereo not given) [desmethyldehydroaltenusin, 2]
> 200	CC12C=CC(=O)C=C1c1cccc(O)c1C(=O)O2 (stereo not given) [dehydroaltenusin derivative, 32]
89	CC12CC(=O)C(=O)C=C1c1cccc(O)c1C(=O)O2 (stereo not given) [dehydroaltenusin derivative, 20]
35	CCCOc1cc(O)c2c(c1)C1=CC(=O)C(=O)CC1(C)OC2=O (stereo not given) [dehydroaltenusin derivative, 14]
64	COc1cc(O)c2c(c1)C1=CC(=O)C(=O)CC1(C)OC2=O (stereo not given) [dehydroaltenusin]
11	CCCCCCCCCCCCOc1cc(O)c2c(c1)C1=CC(=O)C(=O)CC1(C)OC2=O (stereo not given) [dehydroaltenusin derivative, 16]

SMILES	IC50 [µM]
COc1cc(O)c2c(=O)oc3cc(O)c(O)cc3c2c1 [dehydroaltenusin derivative, 26]	> 200
COc1cc(O)c2c(=O)oc3cc(OCc4ccccc4)c(OCc4ccccc4)cc3c2c1 [dehydroaltenusin derivative, 25]	> 200
